From patent US20070142433A1, “Angiogenesis-affecting compounds and methods of use thereof” (priority 2004, published 2007) come the findings set out here.

For orientation: IC50 means the concentration needed to halve the response being measured.

Where a name gives a salt, the structure may show the parent alone. Read-outs that look alike come from different tables or passages of the source.

Assay [1] has as its system A375. In words: Cell proliferation assay (crystal violet), A375. The class given is cell-based. The following applies: Homo sapiens, A-375, 72 hours, OD 595 nm. How it is done:
(§1) In order to further confirm the surprising results described above, the compounds were tested in a cell proliferation assay. Crystal violet was used to measure cell proliferation; this basic dye stains cell nuclei and provides a sensitive, rapid evaluation. Light absorption of unstained or destained cell layers is negligible, making it possible to perform cell number measurements in wells. Six cell types (HUVEC, HDMEC, SMC, Fibroblast, A375 and RENCA) were plated and treated with the compounds in a log2 titration for 72 hours. The optimal cell number for each cell type was determined and optical density (OD) was measured at 595 nm. Each data point was measured in quadruplicate. The assay was stopped after 72 hours and subsequently analyzed. The OD-value of the plated cells before addition of the compounds was subtracted from all OD-values obtained after treatment. The percentage in relation to control proliferation was then calculated. Negative values therefore represent a count of fewer cells than were plated. The IC50 is given below in Table 1. Results are shown as a percentage in relation to the control proliferation. The IC50 were calculated using GraphPad Prism software (GraphPad Software, Inc.). Perhexiline results are depicted graphically in FIGS. 4A-4C and Erythromycin results in FIGS. 5A-5C.

Assay [2] deals with HUVEC. In words: Cell proliferation assay (crystal violet), HUVEC. The format is cell-based. The following applies: Homo sapiens, 72 hours, OD 595 nm. The procedure: In order to further confirm the surprising results described above, the compounds were tested in a cell proliferation assay. Crystal violet was used to measure cell proliferation; this basic dye stains cell nuclei and provides a sensitive, rapid evaluation. Light absorption of unstained or destained cell layers is negligible, making it possible to perform cell number measurements in wells.
Six cell types (HUVEC, HDMEC, SMC, Fibroblast, A375 and RENCA) were plated and treated with the compounds in a log2 titration for 72 hours. The optimal cell number for each cell type was determined and optical density (OD) was measured at 595 nm. Each data point was measured in quadruplicate. The assay was stopped after 72 hours and subsequently analyzed.
The OD-value of the plated cells before addition of the compounds was subtracted from all OD-values obtained after treatment. The percentage in relation to control proliferation was then calculated. Negative values therefore represent a count of fewer cells than were plated. The IC50 is given below in Table 1. Results are shown as a percentage in relation to the control proliferation. The IC50 were calculated using GraphPad Prism software (GraphPad Software, Inc.). Perhexiline results are depicted graphically in FIGS. 4A-4C and Erythromycin results in FIGS. 5A-5C. […]

The subject of assay [3] is SMC. In words: Cell proliferation assay (crystal violet), SMC. The class given is cell-based. The conditions noted are these: 72 hours, OD 595 nm. How it is done:
as §1

Assay [4] relates to RENCA. Kind of assay: Cytoviability assay (resazurin), RENCA. The class given is cell-based. The conditions noted are these: 24 hours after treatment, read-out: IC50 cell viability RENCA. The procedure:
(§2) A cell viability assay based on cellular reduction of resazurin to the fluorescent product resorufin was performed. Viable cells can metabolize and reduce the dye, whereas dead cells rapidly lose the capacity to do so, making the increase in fluorescence directly proportional to the number of viable cells. The tested compounds were added in a log2 titration and viable cells were analyzed 24 hours after treatment. The fluorescence was determined at an excitation wavelength of 560 nm and an emission wavelength of 590 nm. The percentage of viable cells in relation to the untreated control proliferation was calculated. […] Perhexiline results are depicted graphically in FIGS. 6A-6C and Erythromycin results in FIGS. 7A-7C.

The test system of assay [5] is HUVEC sprouting. In words: Spheroid-based 3D angiogenesis assay (IC50, alone or with VEGFR-2 inhibitor). The class given is cell-based, human. The conditions noted are these: Homo sapiens, HUVEC. The source says:
Therefore, the assay was applied to test compounds alone or in combination with a VEGFR-2 inhibitor to address changes in IC50. […] The VEGFR-2 inhibitor was applied at a concentration close to the IC50.

Assay [6] has as its system SMC. Kind of assay: Cytoviability assay (resazurin), SMC. The class given is cell-based. The conditions noted are these: 24 hours after treatment, read-out: IC50 cell viability SMC. How it is done: as §2
In general terms: Resazurin is reduced to fluorescent resorufin, in cell work by metabolically active cells.

The test system of assay [7] is HDMEC. In words: Cytoviability assay (resazurin), HDMEC. The class given is cell-based. The following applies: 24 hours after treatment, read-out: IC50 cell viability HDMEC. The procedure:
as §2

Assay [8] concerns Alexander cells (PLC/PRF/5) subcutaneous tumor. Kind of assay: Hepato-Cellular Carcinoma Model (HCC) in vivo study, subcutaneous Alexander cells. Details: species or system NMRI nu/nu mice.
Procedure: Monolayers of Alexander cells can be grown in 85% Dulbecco's Modified Eagle's Medium (DMEM), 15% Fetal Bovine Serum (FBS), 4 mM L-glutamine, 100 units penicillinG/ml, and 100 μg of streptomycin-sulfate/ml. The cells can be cultured in a humidified atmosphere of 90% air and 10% carbon dioxide at 37° C. Media may preferably be changed every 4 days.
Six to eight week old female NMRI^−nu/nu mice could be utilized. The Alexander cells can be implanted in the left flank region of the mice, for example, by injecting 4×10^7 cells in 0.2 ml aliquots into the subcutaneous space of the left flank using a 29 G needle syringe. After inoculation the appearing subcutaneous tumours can be measured by callipering and multiplying the distances of all three dimensions.
Therapy can be initiated after the tumor size has reached a volume of approximately 100 mm^3 (day 1 of the study), and continue for about 21 days.
As shown, Group 1 would serve as control, where the animals would receive no further treatment after injection of Alexander cells.
After approximately 21 days of treatment, mice could be sacrificed and tumors collected and optionally stored appropriately at −80° C. For histological examination of the tumor vasculature, cryosections of the tissues (thickness of 5-10 μm) can be taken. For visualization of the blood vessels, immunohistochemical staining for CD 31 (PECAM-1) can be performed, and vessels counted microscopically using a defined magnification (×200).
Assay [9] concerns A375. Kind of assay: Cytoviability assay (resazurin), A375. The class given is cell-based. The following applies: Homo sapiens, A-375, 24 hours after treatment, read-out: IC50 cell viability A375. The procedure:
as §2

Assay [10] relates to NHDF (human dermal fibroblasts) scattering. Kind of assay: NHDF spheroid evaluation (fibroblast scattering). The format is cell-based. The procedure:
Where the test compound was classified as an inhibitor or stimulator, a second screening process was performed. In the second screen, the test substance was thawed and 5 mM of the substance was diluted to a 10 fold concentrated working solution (100 μM) in endothelial cell basal medium. No supplements were used in the basal medium.
Instead of HUVEC, spheroids were prepared by pipetting 400 human dermal fibroblasts (NHDF) into each well of nonadhesive 96-well plates. Prior to use the NHDF were cultured according to the supplier's instructions (PromoCell, Heidelberg, Germany). The cells were allowed to aggregate overnight into spheroids (Korff and Augustin: J Cell Biol 143: 1341-52, 1998). After aggregation, 48 NHDF spheroids were harvested. Each of the harvested spheroids was seeded in 900 μl of methocel-collagen solution and pipetted into an individual well of a 24-well plate to allow collagen gel polymerization.
Thirty (30) minutes after seeding, the test substance was added. The working dilution (10 fold concentration) was utilized, 100 μl was pipetted on top of the polymerized collagen gel in each well. The plates were then incubated at 37° C. for 24 hours. At the end of the incubation period the plates were fixed by adding 1 ml paraformaldehyde (10%) to each well.
The NHDF spheroids were microscopically assayed for fibroblast scattering intensity. […] For exemplary results, see FIG. 1.

Consider `C1CCC(C(CC2CCCCN2)C2CCCCC2)CC1` (stereo not shown) [Perhexiline, Perhexiline maleate], for which the IC50 in [1] was determined as 25 µM; in assay [2] it was 10 µM; in [3] it was 14 µM; in [4] it was 5 µM; in assay [5] (compound alone, read-out: IC50 3D angiogenesis assay without VEGFR-2 inhibitor) it was 5.4 µM; in assay [5] (read-out: IC50 in vitro 3D sprouting of HUVEC) it was 1.5 µM. The 50% inhibitory concentration (IC50) in [6] stood at 32 µM; in [7], 8 µM; in assay [9], 10 µM; in [10] (Homo sapiens, NHDF) it was 19 µM. Besides, in [8] (subcutaneous Alexander cell tumors in mice, about 21 days of treatment, FIGS. 28-30), the “tumor growth compared to control” value was “reduced”. The vessel density entry in [8] (tumor vasculature, FIG. 36) was “significant effect on vessel density”. Further, the “fibroblast scattering (invasion) effect” value in [10] (NHDF spheroids in collagen gel, no supplements, 24 hours) is “no fibroblast invasion effect”.
